Source: patent EP4035684A1, “AFFINITY ILLUDOFULVENE CONJUGATES” (AF Chemical LLC, priority 2019, dated 2022)
Where a SMILES comes first, the peptide text is derived from it. [ ]: non-standard residue; d: D form. The star is where a group is joined. Dolaproine = CO[C@@H]([C@@H]1CCCN1)[C@@H](C)C(=O)O; Dil = CC[C@H](C)[C@H](NC)[C@@H](CC(=O)O)OC; X1 = C[C@@H](N*)[C@@H](O)c1ccccc1; NMeV = CN[C@H](C(=O)O)C(C)C

Assays:
8392B cell line [1] = test: cells; type: cell-based; settings: read-out: Mean IC50 value (nM) ± SD, N=3 unless otherwise indicated, 8392B Nontarget Cell Line, 48 hr exposure, 8392B nontarget cell line, mean ± SD, N=3 unless otherwise indicated
8392B cell line [2] = test: Two hour toxicity: inhibition of DNA synthesis activity, nontarget cell line; type: cell-based; settings: read-out: Mean IC50 value (nM) ± SD, N=3 unless otherwise indicated; 8392B Nontarget Cell Line; 2 hr exposure; 8392B nontarget cell line, 2 hr exposure; mean ± SD, N=3 unless otherwise indicated
MV522 cell line = test: cells; type: cell-based; settings: for IC50: read-out: Mean IC50 value (nM) ± SD, N=3 unless otherwise indicated, MV522 Target Cell Line, 2 hr exposure, MV522 target cell line, mean ± SD, N=3 unless otherwise indicated
NCI 60 cell line panel = test: NCI DTP 60 cell line screen assay; settings: for Cytotoxicity: ability to actually kill tumor cells versus only inhibiting growth
Excerpt: An ADC is engulfed by a tumor cell, transported to the endosomes (pH < 6.0) and then into the lysozomes (pH < 4). […] 4) Cancer cells can become resistant to various toxins and drugs through the development of what is termed multi-drug resistance. This process is known to occur through several different mechanisms.

SMILES	IC50 (8392B cell line [1]) [nM]	IC50 (8392B cell line [2]) [nM]	also measured
CC1=C(CN=[N+]=[N-])C2=C(C)C3(CC3)[C@@](C)(O)C(=O)C2=C1 [compound 193]	> 11000		
CC1=C(CSc2nc(O)c3nccnc3n2)C2=C(C)C3(CC3)[C@@](C)(O)C(=O)C2=C1 [compound 153]		> 90000	
CC(=O)ON(C(C)=O)C(=O)OCCCC1=C(C)C=C2C(=O)[C@](C)(O)C3(CC3)C(C)=C21 [compound 240]		> 24000	
CC1=C(CCCNC(=O)OCC2=C(C(=O)O)N3C(=O)[C@H](NC(=O)Cc4cccs4)[C@@H]3S(=O)(=O)C2)C2=C(C)C3(CC3)[C@@](C)(O)C(=O)C2=C1 [compound 274]	> 4500	> 46000	
CC1=C(CCCNC(=O)N2CCC(N3CCCCC3)CC2)C2=C(C)C3(CC3)[C@@](C)(O)C(=O)C2=C1 [compound 260]		> 64000	
CC1=C(Cn2cc(F)c(=O)[nH]c2=O)C2=C(C)C3(CC3)[C@@](C)(O)C(=O)C2=C1 [compound 286]	> 8800		
CC1=C(CSc2nc3ccccc3s2)C2=C(C)C3(CC3)[C@@](C)(O)C(=O)C2=C1 [compound 147]		> 76000	IC50 (MV522 cell line): > 76000 nM
CC1=C2C(=C[C@@](C)(C=O)[C@@H]2O)C(=O)[C@](C)(O)C12CC2 [analog 383, (2'R,3'R,6'R)-3',6'-dihydroxy-2',4',6'-trimethyl-7'-oxo-2',3',6',7'-tetrahydrospiro[cyclopropane-1,5'-indene]-2'-carbaldehyde]			Cytotoxicity (NCI 60 cell line panel): cytotoxic
COc1ccc(NS(=O)(=O)OCC2=C(C)C=C3C(=O)[C@](C)(O)C4(CC4)C(C)=C32)cc1 [compound 269]	> 7000		
CC1=C([C@@H]2CCOS(=O)(=O)N2)C2=C(C)C3(CC3)[C@@](C)(O)C(=O)C2=C1 [compound 259]		> 85000	
CC(=O)OC[C@]1(C)C=C2C(=O)[C@](C)(O)C3(CC3)C(C)=C2[C@H]1OC(=O)N(C)CCN(C)C(=O)OC(C)(C)C [analog 334, ((2'S,3'R,6'R)-3'-(((2-((tert-butoxycarbonyl)(methyl)amino)ethyl)(methyl)carbamoyl)oxy)-6'-hydroxy-2',4',6'-trimethyl-7'-oxo-2',3',6',7'-tetrahydrospiro[cyclopropane-1,5' - inden]-2' - yl)methylacetate]			Cytotoxicity (NCI 60 cell line panel): cytotoxic
CC1=C(CCCNC(=O)C(F)(F)F)C2=C(C)C3(CC3)[C@@](C)(O)C(=O)C2=C1 [compound 268]	> 8000		
CC1=C(CN)C2=C(C)C3(CC3)[C@@](C)(O)C(=O)C2=C1 [compound 270]		> 84000	
COC(=O)C[S+]([O-])CC1=C(C)C=C2C(=O)[C@](C)(O)C3(CC3)C(C)=C21 (stereo partly shown) [compound 263]		124000 ± 18000	
CONC(=O)NCC1=C(C)C=C2C(=O)[C@](C)(O)C3(CC3)C(C)=C21 [compound 278]	> 9400	> 94000	
CC1=C(CSc2nnnn2-c2ccc(O)cc2)C2=C(C)C3(CC3)[C@@](C)(O)C(=O)C2=C1 [compound 154]		> 70000	IC50 (MV522 cell line): > 70000 nM
CC1=C(COCCBr)C2=C(C)C3(CC3)[C@@](C)(O)C(=O)C2=C1 [compound 020]		25000 ± 3100	IC50 (MV522 cell line): 530 ± 140 nM
CON(CC1=C(C)C=C2C(=O)[C@](C)(O)C3(CC3)C(C)=C21)C(=O)CN [compound 267]		> 90000	
COc1cc2cc(c1Cl)N(C)C(=O)C[C@H](OC(=O)[C@H](C)N(C)C(=O)CCS)[C@]1(C)O[C@H]1[C@H](C)[C@@H]1C[C@@](O)(NC(=O)O1)[C@H](OC)/C=C/C=C(\C)C2 [DM1, reference compound]			Cytotoxicity (NCI 60 cell line panel): not cytotoxic and No
CC1=C(COC(=O)CCCCCN2C(=O)C=CC2=O)C2=C(C)C3(CC3)[C@@](C)(O)C(=O)C2=C1 [compound 217]	> 7000		
CC(=O)OC[C@]1(C)C=C2C(=O)[C@](C)(O)C3(CC3)C(C)=C2[C@H]1OC(=O)N(C)CCN(C)C(=O)OC(C)(C)C [compound 334]			MDR Activity (NCI 60 cell line panel): Yes; Cytotoxicity (NCI 60 cell line panel): Yes
CC1=C(CCCNC(=O)[C@@H]2CCCN2)C2=C(C)C3(CC3)[C@@](C)(O)C(=O)C2=C1 [compound 202]	> 6200	> 62000	
CC1=C(COc2ccc([N+](=O)[O-])cc2)C2=C(C)C3(CC3)[C@@](C)(O)C(=O)C2=C1 [compound 198]	> 82000	> 8200	
CC1=C(CCCOC(=O)CNC(=O)OC(C)(C)C)C2=C(C)C3(CC3)[C@@](C)(O)C(=O)C2=C1 [compound 298]			IC50 (MV522 cell line): > 7000 nM

SMILES	IC50 (8392B cell line [1]) [nM]	IC50 (8392B cell line [2]) [nM]	also measured
CC1=C(CNS(N)(=O)=O)C2=CC3(CC3)C(C)(O)C(=O)C2=C1 (stereo not shown) [compound 283]	> 9300		
CC1=C2C(=C[C@@](C)(C=O)[C@@H]2O)C(=O)[C@](C)(O)C12CC2 [compound 383]			MDR Activity (NCI 60 cell line panel): Yes; Cytotoxicity (NCI 60 cell line panel): Yes
CC(=O)ON(C(C)=O)c1ccc(C(=O)OC[C@]2(C)C=C3C(=O)[C@](C)(O)C4(CC4)C(C)=C3C2O)cc1 (stereo partly shown) [compound 136]		> 6200	
CC1=C2C(=CC(C)(C)C2OC(=O)c2ccc(S(=O)(=O)F)cc2)C(=O)C(C)(O)C12CC2 (stereo not shown) [compound 222]		9300	
C/C(=C\c1csc(C)n1)[C@@H]1C[C@@H]2O[C@@H]2CCC[C@H](C)[C@H](O)[C@@H](C)C(=O)C(C)(C)[C@@H](O)CC(=O)O1 [Epothilone A, reference compound]			Cytotoxicity (NCI 60 cell line panel): not cytotoxic and No
CC(=O)O[C@@H]1C2=C(C)C3(CC3)[C@@](C)(O)C(=O)C2=C[C@@]1(C)CO [analog 371, (2'S,3'R,6'R)-6'-hydroxy-2'-(hydroxymethyl)-2',4',6'-trimethyl-7'-oxo-2',3',6',7'-tetrahydrospiro[cyclopropane-1,5'-inden]-3'-yl acetate]			Cytotoxicity (NCI 60 cell line panel): cytotoxic
CC1=C(CNS(C)(=O)=O)C2=C(C)C3(CC3)[C@@](C)(O)C(=O)C2=C1 [compound 271]	> 9300	> 93000	
CC(=O)O[C@@H]1C2=C(C)C3(CC3)[C@@](C)(O)C(=O)C2=C[C@@]1(C)CO [compound 371]			MDR Activity (NCI 60 cell line panel): Yes; Cytotoxicity (NCI 60 cell line panel): Yes
CC1=C2C(=C[C@@](C)(COS(C)(=O)=O)[C@@H]2O)C(=O)[C@](C)(O)C12CC2 [analog 362, ((2'S,3'R,6'R)-3',6'-dihydroxy-2',4',6'-trimethyl-7'-oxo-2',3',6',7'-tetrahydrospiro[cyclopropane-1,5'-inden]-2'-yl)methyl methanesulfonate]			Cytotoxicity (NCI 60 cell line panel): cytotoxic
CC1=C(CCCOC(=O)[C@@H]2CCCN2)C2=C(C)C3(CC3)[C@@](C)(O)C(=O)C2=C1 [compound 196]	> 9200		
CCCCCCCC/C=C/CCCCCCCC(=O)OCCCC1=C(C)C=C2C(=O)[C@](C)(O)C3(CC3)C(C)=C21 [compound 227]		> 57000	IC50 (MV522 cell line): > 57000 nM
CC1=C2C(=C[C@@](C)(COS(C)(=O)=O)[C@@H]2O)C(=O)[C@](C)(O)C12CC2 [compound 362]			MDR Activity (NCI 60 cell line panel): Yes; Cytotoxicity (NCI 60 cell line panel): Yes
CC1=C(Cn2c(=O)[nH]cc(F)c2=O)C2=C(C)C3(CC3)[C@@](C)(O)C(=O)C2=C1 [compound 287]		567000 ± 17000	IC50 (MV522 cell line): 455000 ± 22000 nM
CC1=C(CNO)C2=C(C)C3(CC3)[C@@](C)(O)C(=O)C2=C1 [compound 394]			MDR Activity (NCI 60 cell line panel): Yes; Cytotoxicity (NCI 60 cell line panel): Yes
CC1=C(CNC(=O)C(N)CC(C)C)C2=C(C)C3(CC3)[C@@](C)(O)C(=O)C2=C1 (stereo partly shown) [compound 276]	> 6100	> 61000	
CC1=C(CNC(=O)C2CCCN2)C2=C(C)C3(CC3)[C@@](C)(O)C(=O)C2=C1 (stereo partly shown) [compound 275]	> 6200	> 62000	
CC1=C(CNO)C2=C(C)C3(CC3)[C@@](C)(O)C(=O)C2=C1 [analog 394, (R)-6'-hydroxy-3'-((hydroxyamino)methyl)-2',4',6'-trimethylspiro[cyclopropane-1,5'-inden]-7'(6'H)-one]			Cytotoxicity (NCI 60 cell line panel): cytotoxic
CC1=CC2=C(C)C3(CC3)[C@@](C)(O)/C(=N/O)C2=C1 [analog 224, (R,E)-6'-hydroxy-2',4',6'-trimethylspiro[cyclopropane-1,5 '-inden]-7'(6'H)-one oxime]			toxicity (MV522 cell line; target and nontarget cell line, in words): minimal toxicity
CC1=C(CCCOC(=O)[C@@H]2CCCN2C(=O)[C@H](CO)NC(=O)[C@@H](N)CO)C2=C(C)C3(CC3)[C@@](C)(O)C(=O)C2=C1 [compound 209]		> 90000	
CC1=C(COc2ccccc2)C2=C(C)C3(CC3)[C@@](C)(O)C(=O)C2=C1 [compound 199]	> 9300	> 93000	
CC1=C(CCCOC(=O)C(N)CC(C)C)C2=C(C)C3(CC3)[C@@](C)(O)C(=O)C2=C1 (stereo partly shown) [compound 176]			MDR Activity (NCI 60 cell line panel): Yes; Cytotoxicity (NCI 60 cell line panel): Yes
CC1=C(Cn2c(=O)cc[nH]c2=O)C2=C(C)C3(CC3)[C@@](C)(O)C(=O)C2=C1 [compound 284]	> 8800		
CC1=C(CCCOC(=O)[C@@H]2CCCN2C(=O)[C@@H](N)CO)C2=C(C)C3(CC3)[C@@](C)(O)C(=O)C2=C1 [compound 203]	> 5500		
CC[C@H](C)[C@@H]([C@@H](CC(=O)N1CCC[C@H]1[C@H](OC)[C@@H](C)C(=O)N[C@H](C)[C@@H](O)c1ccccc1)OC)N(C)C(=O)[C@@H](NC(=O)[C@@H](NC)C(C)C)C(C)C [MMAE, N-methylvaline-valine-dolaisoleuine-dolaproine-norephedrine, reference compound] (H-[NMeV]V[Dil][Dolaproine]-X1)			MDR Activity (NCI 60 cell line panel): No; MDR Activity (NCI 60 cell line panel; listed as MMA): not MDR active; Cytotoxicity (NCI 60 cell line panel): No; Cytotoxicity (NCI 60 cell line panel; listed as MMA): not cytotoxic
